Test: Retention of glycopeptides on reversed phase C18 nanoLC-MS
Assay type: physicochemical
Details: difference between glycoform with and without fucose; RP C18 nanoLC, gradient 3

RRT difference introduced by fucose (RRT expressed as trx/trGlcNAc form) | Sequence
0.00204 | VVLHPNYSQVDIGLIK [bi-antennary glycoform of VVLHPNYSQVDIGLIK]
0.00096 | VVLHPNYSQVDIGLIK [tri-antennary glycoform of VVLHPNYSQVDIGLIK]

Sequence | RRT difference introduced by fucose (RRT expressed as trx/trGlcNAc form)
VVLHPNYSQVDIGLIK [tetra-antennary glycoform of VVLHPNYSQVDIGLIK] | 0.00035

Reference: publication PMC5581245 (Electrophoresis, 2017)
